Data as given in patent publication US6821962B2, “Quinoline and quinoxaline compounds which inhibit platelet-derived growth factor and /or p56lck tyrosine kinases” (Aventis Pharmaceuticals Inc., priority 1997, dated 2004).
Counter-ions that a name gives are not always drawn.

system: not given; conditions: not given

Q: Which melting point does the source give for COc1cc2ncc(CNC3CCCCC3)nc2cc1OC (as salt: HCl) [Example 11, Cyclohexyl-(6,7-dimethoxyquinoxalin-2-ylmethyl)-amine] here?
A: Its melting point is 185 to 190 °C (dec.).

Q: With COc1cc2ncc(NC3CCCCC3)nc2cc1N1CCOCC1 [Example 14, Cyclohexyl-(6-methoxy-7-morpholin-4-yl-quinoxalin-2-yl)-amine] as the compound, how does the melting point read?
A: The melting point was 194 to 196 °C.

Q: Which melting point does the source give for COc1cc2cc(NCC(C)(C)CO)cnc2cc1OC [Example 13, 3-(6,7-Dimethoxyquinolin-3-yl-amino)-2,2-dimethyl-propan-1-ol] here?
A: The melting point was 170 to 173.5 °C.

Q: For CC(C)Oc1ccc2nc(Nc3ccccc3)cnc2c1.Cl, which melting point is on record?
A: Its melting point is 205 to 210 °C (dec.).

Q: For COc1cc2ncc(NC3CCCCC3)nc2cc1OC [Example 3, 2-cyclohexylamino-6,7-dimethoxyquinoxaline], which melting point is on record?
A: The melting point was 188 to 189.5 °C.

Q: For COc1cc2ncc(OC3CCCCC3)nc2cc1OC1CCCCC1 [Example 10, 2,7-Bis-cyclohexyloxy-6-methoxy-quinoxaline], which melting point is on record?
A: The melting point was 75 to 78 °C.

Q: With Oc1ccc2nc(Nc3ccccc3)cnc2c1 [Example 8, 2-Anilino-6-quinoxalinol] as the compound, how does the melting point read?
A: Its melting point is 211 to 213 °C.

Q: With c1ccc(Nc2cnc3cc(O[C@@H]4CCOC4)ccc3n2)cc1 [Example 9, Phenyl-[6-(tetrahydrofuran-3-(R)-yl-oxy)quinoxalin-2-yl]amine] as the compound, how does the melting point read?
A: The melting point was 173 to 175 °C.

Q: Which melting point does the source give for COc1cc2ncc(N[C@@H]3C[C@H]4CC[C@@H]3C4)nc2cc1OC [Example 22, (1R,2R,4S)-(+)-Bicyclo[2.2.1]hept-2-yl-(6,7-dimethoxyquinoxalin-2-yl)-amine] here?
A: Its melting point is 184 to 186 °C.

target: Lck (Homo sapiens, UniProt P06239); conditions: background, literature report; cited from earlier work
Sequence (P06239 whole entry, species assumed): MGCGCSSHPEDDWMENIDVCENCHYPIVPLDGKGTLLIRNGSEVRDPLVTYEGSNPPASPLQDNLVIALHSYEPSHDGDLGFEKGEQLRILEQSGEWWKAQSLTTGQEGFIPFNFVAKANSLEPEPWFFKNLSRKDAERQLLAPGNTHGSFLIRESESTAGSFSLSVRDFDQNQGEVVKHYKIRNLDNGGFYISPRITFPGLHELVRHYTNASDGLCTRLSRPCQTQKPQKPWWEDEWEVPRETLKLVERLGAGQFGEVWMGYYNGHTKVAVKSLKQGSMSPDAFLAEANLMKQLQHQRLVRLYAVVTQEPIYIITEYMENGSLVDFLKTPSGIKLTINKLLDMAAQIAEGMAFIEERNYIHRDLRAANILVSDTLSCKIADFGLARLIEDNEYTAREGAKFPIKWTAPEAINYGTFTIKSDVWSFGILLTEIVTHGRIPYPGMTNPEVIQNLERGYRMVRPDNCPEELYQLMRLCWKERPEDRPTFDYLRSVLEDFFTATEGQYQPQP

Q: Which “potency against Lck (in words)” value does the source give for Cc1ccc(-c2nn(C(C)(C)C)c3ncnc(N)c23)cc1 [PP1] here?
A: Its value is “low nanomolar”.

target: Fyn (Homo sapiens, UniProt P06241); conditions: background, literature report (Hanke et al.); cited from earlier work
Sequence (P06241 whole entry, species assumed): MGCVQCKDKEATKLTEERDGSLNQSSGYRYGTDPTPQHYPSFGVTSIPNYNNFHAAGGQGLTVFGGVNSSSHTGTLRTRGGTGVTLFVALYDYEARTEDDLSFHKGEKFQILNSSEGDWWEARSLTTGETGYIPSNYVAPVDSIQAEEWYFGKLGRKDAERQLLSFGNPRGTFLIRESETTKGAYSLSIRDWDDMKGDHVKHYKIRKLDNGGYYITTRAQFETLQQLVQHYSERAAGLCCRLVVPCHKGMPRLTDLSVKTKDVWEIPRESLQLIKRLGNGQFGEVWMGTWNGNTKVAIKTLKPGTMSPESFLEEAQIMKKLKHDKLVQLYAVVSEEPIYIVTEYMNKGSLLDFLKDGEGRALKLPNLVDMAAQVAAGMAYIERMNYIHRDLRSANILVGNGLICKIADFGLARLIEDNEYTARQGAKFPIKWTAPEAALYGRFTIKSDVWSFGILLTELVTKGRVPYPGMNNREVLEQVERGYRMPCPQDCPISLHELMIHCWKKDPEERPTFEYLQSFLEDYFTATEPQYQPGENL

Q: For Cc1ccc(-c2nn(C(C)(C)C)c3ncnc(N)c23)cc1 [PP1], which “potency against Fyn (in words)” value is on record?
A: Its value is “low nanomolar”.
